Measured values published in patent US20190071416A1, “COMPOUNDS FOR TREATMENT OF CANCER AND EPIGENETICS” (Agency For Science, Technology and Research, priority 2015, published 2019).

These molecules were tested against T1, SMYD3 (Homo sapiens, UniProt Q9H7B4) (assay: SMYD3 biochemical assay (MTase-Glo, MAP3K2 peptide substrate)). Conditions: Table 3; MTase assay, MAP3K2 peptide substrate; read-out: IC50.
T1 sequence (Q9H7B4 1-428): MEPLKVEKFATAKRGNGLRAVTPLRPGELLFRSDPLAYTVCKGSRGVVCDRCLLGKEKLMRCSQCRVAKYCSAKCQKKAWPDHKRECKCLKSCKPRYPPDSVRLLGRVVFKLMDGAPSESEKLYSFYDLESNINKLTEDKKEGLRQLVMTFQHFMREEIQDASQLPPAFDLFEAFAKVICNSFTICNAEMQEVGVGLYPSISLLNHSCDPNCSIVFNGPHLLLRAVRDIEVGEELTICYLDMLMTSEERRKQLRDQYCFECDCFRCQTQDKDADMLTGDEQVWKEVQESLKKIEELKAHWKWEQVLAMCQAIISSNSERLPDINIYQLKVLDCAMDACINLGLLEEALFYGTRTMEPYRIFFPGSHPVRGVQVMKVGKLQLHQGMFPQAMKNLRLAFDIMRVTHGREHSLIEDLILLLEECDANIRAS
Method: A SMYD3 enzymatic assay was developed using Promega's Methyltransferase-Glo™ reagents. In the assay, SMYD3 catalyzes the methylation of the MAP3K2 peptide substrate by transferring a methyl group from SAM to MAP3K2 peptide and further converts the SAM to SAH. The SMYD3 methyltransferase activity is measured based on the amount of SAH produced from the reaction through the use of coupling enzymes that convert the SAH to ATP. The MTase-Glo detection solution then catalyzes the formation of light from ATP.
A final concentration of 1.0 μM and 10 μM SAM and MAP3K2 peptide were added and further incubated for 30 min at room temperature before adding the MTase Glo and detection reagent. Reaction signals were detected using microplate readers on luminescent mode (Safire Tecan). The IC50 was determined by non-linear regression, using GraphPad Prism version, 5.03.

IC50	Structure (SMILES)
1800 nM	CCCOC(=O)N1CCN(C(=O)c2ccc3c(Cl)c4c(nc3c2)CCCC4)C(C)C1C (stereo not drawn) [A033, Propyl 4-(9-chloro-5,6,7,8-tetrahydroacridine-3-carbonyl)-2,3-dimethylpiperazine-1-carboxylate]
380 nM	CCCOC(=O)N1CCN(C(=O)c2ccc3c(Cl)c4c(nc3c2)CCC(CC(=O)OC)C4)CC1 (stereo not drawn) [A034, Propyl 4-(9-chloro-7-(2-methoxy-2-oxoethyl)-5,6,7,8-tetrahydroacridine-3-carbonyl)piperazine-1-carboxylate]
8200 nM	CCCOC(=O)N1CCN(C(=O)c2ccc3c(Cl)c4c(nc3c2)CCCC4)CC1(C)C [A035, Propyl 4-(9-chloro-5,6,7,8-tetrahydroacridine-3-carbonyl)-2,2-dimethylpiperazine-1-carboxylate]
6700 nM	CCCOC(=O)N1CCN(C(=O)c2ccc3c(Cl)c4c(nc3c2)CCCC4)CC12CC2 [A036, Propyl 7-(9-chloro-5,6,7,8-tetrahydroacridine-3-carbonyl)-4,7-diazaspiro[2.5]octane-4-carboxylate]
8400 nM	CCCOC(=O)N1CCN(C(=O)c2ccc3c(Cl)c4c(nc3c2)CCCC4)C2(CC2)C1 [A037, Propyl 4-(9-chloro-5,6,7,8-tetrahydroacridine-3-carbonyl)-4,7-diazaspiro[2.5]octane-7-carboxylate]
420 nM	CCCCOC(=O)N1CCN(C(=O)c2ccc3c(Cl)c4c(nc3c2)CCCC4)CC1 [A038, Butyl 4-(9-chloro-5,6,7,8-tetrahydroacridine-3-carbonyl)piperazine-1-carboxylate]
1300 nM	Cc1cc(C(=O)N2C3CCCC2CN(C(=O)c2ccc4c(Cl)c5c(nc4c2)CCCC5)C3)no1 [A039, (9-Chloro-5,6,7,8-tetrahydroacridin-3-yl)(9-(5-methylisoxazole-3-carbonyl)-3,9-diazabicyclo[3.3.1]nonan-3-yl)methanone]
10900 nM	Cc1cc(C(=O)N2C3CCCC2CN(C(=O)c2ccc4c(Cl)c5c(nc4c2)CCCC5)C3)n[nH]1 [A040, (9-Chloro-5,6,7,8-tetrahydroacridin-3-yl)(9-(5-methyl-1H-pyrazole-3-carbonyl)-3,9-diazabicyclo[3.3.1]nonan-3-yl)methanone]
260 nM	CCCCOC(=O)N1C2CCCC1CN(C(=O)c1ccc3c(Cl)c4c(nc3c1)CCCC4)C2 [A041, Butyl 3-(9-chloro-5,6,7,8-tetrahydroacridine-3-carbonyl)-3,9-diazabicyclo[3.3.1]nonane-9-carboxylate]
5200 nM	CCCOC(=O)N1CCN(C(=O)c2ccc3c(Cl)c4c(nc3c2)CCCC4)CC1C(=O)OC (stereo not drawn) [A042, 2-Methyl 1-propyl 4-(9-chloro-5,6,7,8-tetrahydroacridine-3-carbonyl)piperazine-1,2-dicarboxylate]
550 nM	CCCOC(=O)N1CC(C)N(C(=O)c2ccc3c(Cl)c4c(nc3c2)CCCC4)C(C)C1 (stereo not drawn) [A043, Propyl 4-(9-chloro-5,6,7,8-tetrahydroacridine-3-carbonyl)-3,5-dimethylpiperazine-1-carboxylate]
620 nM	CCCOC(=O)N1CCN(C(=O)c2ccc3c(Cl)c4c(nc3c2)CC(C(=O)OC)CC4)CC1 (stereo not drawn) [A044, Methyl 9-chloro-6-(4-(propoxycarbonyl)piperazine-1-carbonyl)-1,2,3,4-tetrahydroacridine-3-carboxylate]
1200 nM	CCCOC(=O)N1CCN(C(=O)c2ccc3c(Cl)c4c(nc3c2)CCC(CN)C4)CC1 (stereo not drawn) [A045, Propyl 4-(7-(aminomethyl)-9-chloro-5,6,7,8-tetrahydroacridine-3-carbonyl)piperazine-1-carboxylate]
800 nM	CCCOC(=O)N1CCN(C(=O)c2ccc3c(Cl)c4c(nc3c2)CCC(C#N)C4)CC1 (stereo not drawn) [A046, Propyl 4-(9-chloro-7-cyano-5,6,7,8-tetrahydroacridine-3-carbonyl)piperazine-1-carboxylate]
600 nM	C=CCC1CCc2c(nc3cc(C(=O)N4CCN(C(=O)OCCC)CC4)ccc3c2Cl)C1 (stereo not drawn) [A047, Propyl 4-(6-allyl-9-chloro-5,6,7,8-tetrahydroacridine-3-carbonyl)piperazine-1-carboxylate]
6100 nM	CCCOC(=O)N1CCN(C(=O)c2ccc3c(Cl)c4c(nc3c2)CCCC4)CC1C(=O)NC (stereo not drawn) [A048, Propyl 4-(9-chloro-5,6,7,8-tetrahydroacridine-3-carbonyl)-2-(methylcarbamoyl)piperazine-1-carboxylate]

IC50	Structure (SMILES)
6400 nM	CCCNC(=O)N1CCN(C(=O)c2ccc3c(Cl)c4c(nc3c2)CCCC4)CC1 [A049, 4-(9-Chloro-5,6,7,8-tetrahydroacridine-3-carbonyl)-N-propylpiperazine-1-carboxamide]
3500 nM	C=CCCC(=O)N1CCN(C(=O)c2ccc3c(Cl)c4c(nc3c2)CCCC4)CC1 [A050, 1-(4-(9-Chloro-5,6,7,8-tetrahydroacridine-3-carbonyl)piperazin-1-yl)pent-4-en-1-one]
650 nM	CCCOC(=O)N1CCN(C(=O)c2ccc3c(Cl)c4c(nc3c2)CCCC4)C(C(=O)OC)C1 (stereo not drawn) [A051, 3-Methyl 1-propyl 4-(9-chloro-5,6,7,8-tetrahydroacridine-3-carbonyl)piperazine-1,3-dicarboxylate]
240 nM	CCCOC(=O)N1CCN(C(=O)c2ccc3c(Cl)c4c(nc3c2)CC(c2ccccn2)CC4)CC1 (stereo not drawn) [A053, Propyl 4-(9-chloro-6-(pyridin-2-yl)-5,6,7,8-tetrahydroacridine-3-carbonyl)piperazine-1-carboxylate]
5200 nM	CCCOC(=O)N1CCN(C(=O)c2ccc3c(Cl)c4c(nc3c2)CCCC4)CC1COC(=O)C(C)C (stereo not drawn) [A054, Propyl 4-(9-chloro-5,6,7,8-tetrahydroacridine-3-carbonyl)-2-((isobutyryloxy)methyl)piperazine-1-carboxylate]
2400 nM	CCCOC(=O)N1CCN(C(=O)c2ccc3c(Cl)c4c(nc3c2)CCCC4)CC1COC(=O)CCOC (stereo not drawn) [A055, Propyl 4-(9-chloro-5,6,7,8-tetrahydroacridine-3-carbonyl)-2-(((3-methoxypropanoyl)oxy)methyl)-piperazine-1-carboxylate]
1700 nM	CCCOC(=O)N1CCN(C(=O)c2ccc3c(Cl)c4c(nc3c2)CCCC4)CC1C(N)=O (stereo not drawn) [A056, Propyl 2-carbamoyl-4-(9-chloro-5,6,7,8-tetrahydroacridine-3-carbonyl)piperazine-1-carboxylate]
310 nM	CCCOC(=O)N1CCN(C(=O)c2ccc3c(Cl)c4c(nc3c2)CC(c2cncnc2)CC4)CC1 (stereo not drawn) [A057, Propyl 4-(9-chloro-6-(pyrimidin-5-yl)-5,6,7,8-tetrahydroacridine-3-carbonyl)piperazine-1-carboxylate]
190 nM	CCCOC(=O)N1CCN(C(=O)c2ccc3c(Cl)c4c(nc3c2)CC(c2ccncc2)CC4)CC1 (stereo not drawn) [A058, Propyl 4-(9-chloro-6-(pyridin-4-yl)-5,6,7,8-tetrahydroacridine-3-carbonyl)piperazine-1-carboxylate]
2300 nM	CCCOC(=O)N1CCN(C(=O)c2ccc3c(Cl)c4c(nc3c2)CCCC4)C(C(N)=O)C1 (stereo not drawn) [A059, Propyl 3-carbamoyl-4-(9-chloro-5,6,7,8-tetrahydroacridine-3-carbonyl)piperazine-1-carboxylate]
2700 nM	CCCOC(=O)N1CCN(C(=O)c2ccc3c(Cl)c4c(nc3c2)CCCC4)CC1CCO (stereo not drawn) [A060, Propyl 4-(9-chloro-5,6,7,8-tetrahydroacridine-3-carbonyl)-2-(2-hydroxyethyl)piperazine-1-carboxylate]
4100 nM	CCCOC(=O)N1CCN(C(=O)c2ccc3c(Cl)c4c(nc3c2)CCCC4)CC1COC(=O)CCC (stereo not drawn) [A061, Propyl 2-((butyryloxy)methyl)-4-(9-chloro-5,6,7,8-tetrahydroacridine-3-carbonyl)piperazine-1-carboxylate]
210 nM	CCCOC(=O)N1CCN(C(=O)c2ccc3c(Cl)c4c(nc3c2)CCC(CC(=O)OC)C4)C[C@@H]1C (stereo partly drawn) [A062, Propyl (2S)-4-(9-chloro-7-(2-methoxy-2-oxoethyl)-5,6,7,8-tetrahydroacridine-3-carbonyl)-2-methylpiperazine-1-carboxylate]
250 nM	CCCOC(=O)N1CCN(C(=O)c2ccc3c(Cl)c4c(nc3c2)CCC(CC(=O)OC)C4)C[C@H]1C (stereo partly drawn) [A063, Propyl (2R)-4-(9-chloro-7-(2-methoxy-2-oxoethyl)-5,6,7,8-tetrahydroacridine-3-carbonyl)-2-methylpiperazine-1-carboxylate]
700 nM	CCCOC(=O)N1CCN(C(=O)c2ccc3c(Cl)c4c(nc3c2)CCCC4)C(C(F)(F)F)C1 (stereo not drawn) [A064, Propyl 4-(9-chloro-5,6,7,8-tetrahydroacridine-3-carbonyl)-3-(trifluoromethyl)piperazine-1-carboxylate]
190 nM	CCCOC(=O)N1CCN(C(=O)c2ccc3c(Cl)c4c(nc3c2)CC(CC#N)CC4)CC1 (stereo not drawn) [A065, Propyl 4-(9-chloro-6-(cyanomethyl)-5,6,7,8-tetrahydroacridine-3-carbonyl)piperazine-1-carboxylate]

Structure (SMILES)	IC50
CCCOC(=O)N1CCN(C(=O)c2ccc3c(Cl)c4c(nc3c2)CCCC4)CC1COC(C)=O (stereo not drawn) [A052, Propyl 2-(acetoxymethyl)-4-(9-chloro-5,6,7,8-tetrahydroacridine-3-carbonyl)piperazine-1-carboxylate]	1800 nM
